Positions of bridges follow the written chain, without caps; N, C: chain ends. Residues, ends and D or L forms follow the SMILES beside them. *: point of attachment. FITC = O=C1OC2(c3ccc(O)cc3Oc3cc(O)ccc32)c2ccc(NC(=S)*)cc21; Ahx = NCCCCCC(=O)O
What was measured:
[1] = molecular target: T1, immunoprecipitated HA-GPR55 (Homo sapiens, UniProt Q9Y2T6); assay: FITC-peptide binding to immunoprecipitated HA-GPR55; conditions: FITC-P1 40 μg/ml (26.8 μM), 2 h at 37°C; three independent experiments in triplicate
T1 construct: expressed in transfected cells; host or cells: HeLa cells, transient transfection; anti-HA immunoprecipitate on beads

GPR55 (HeLa cells) = assay: FITC-peptide binding to HeLa cells silenced for GPR55 (siRNA, shRNA) or re-expressing HA-GPR55 (FACS); design: species or system human; conditions: 40 μg/ml, 1 h at 37°C
Description: For transient interference of GPR55, HeLa cells were plated at 150,000 cells/6-well plate in growth medium without antibiotics, and 24 h later they were transfected with 75 pmol/well non-targeting #2 siRNA (siNT) or human GPR55-targeting siRNAs (D-00581-05) (siGPR55) (siGENOME, Dharmacon, Chicago, IL, USA), using Lipofectamine 2000, according to the manufacturer instructions. Twenty-four hours later, the cells were detached by trypsinization, plated again at 150,000 cells/6-well plate, and 10 h later they were re-transfected with siNT or with siGPR55. Forty-eight hours later, the cells were analyzed. For stable interference of GPR55, HeLa cells were transfected with 1.7 μg/well OmicsLink shRNA expression clone CSHCTR001-CU6 (shCtrl) or clone HSH022476-3-CU6 (shGPR55) from GeneCopoeia (Rockville, MD, USA), using Lipofectamine 2000, according to the manufacturer instructions. Forty-eight hours after transfection, HeLa clones stably expressing shRNAs were selected in growth medium containing 0.3 μg/ml puromycin.
Wild-type HeLa cells plated at a density of 150,000 cells/6-well plate, or cells stable interfered with shCtrl and shGPR55 plated at a density of 120,000 cells/6-well plate, or HeLa cells transiently interfered (48 h after the first interference) were washed twice with HBSS^++, and incubated with the indicated concentrations of the FITC-labeled peptides for the indicated times at 37°C in 1 ml HBSS^++ plus 0.1% fatty-acid-free BSA and 25 mM HEPES, pH 7.5. Then, the cells were washed twice with PBS plus 0.01% Tween-20, and once with PBS, and incubated for 5 min at 37°C with PBS with 2 mM EDTA, detached by scraping, and resuspended in PBS plus 3% BSA. Cell-associated FITC fluorescence was evaluated using FACS, after addition of 4 μg/ml propidium iodide, to exclude dead cells from the FACS gating. Fluorescence intensity was evaluated as % FITC-positive cells and mean fluorescence, recorded before (for peptide binding) and after (for peptide internalization) addition of 0.2% trypan blue to quench the fluorescence of the extracellular bound peptides.

HA-GPR55 = assay: confocal co-localization of FITC-P1 with HA-GPR55 in HeLa cells; assay type: cell-based, human; conditions: 40 μg/ml (26.8 μM) FITC-P1, 1 h, live HeLa cells overexpressing HA-GPR55
Description: HEK293 or CHO cells were rinsed with PBS, fixed for 10 min at room temperature in 4% (v/v) paraformaldehyde, and permeabilized in 0.02% saponin, 0.5% BSA, and 50 mM ammonium chloride in PBS (blocking solution). Then, the cells were stained with an anti-HA antibody (1:1,000) for 1 h at room temperature for GPR55 visualization, followed by 30 min at room temperature with Alexa488- or Alexa568-conjugated anti-mouse secondary antibodies (1:800), with 33 nM Alexa546-labeled phalloidin (Life Technologies) for filamentous actin visualization, or 2 μg/ml Hoechst (Sigma) for nuclei staining, with all reagents diluted in blocking solution. Then, the cells were washed three times with PBS plus 0.02% Tween-20, and the coverslips were mounted and examined by confocal microscope (LSM 510; Zeiss, Germany), with images acquired using the ZEN 2.1 (black) program (Carl Zeiss Microscopy GmbH 1997-2015). For localization studies of FITC-P1 and GPR55 in live HeLa cells, the cells were incubated with an anti-HA antibody (1:1,000) in PBS plus 3% BSA for 1 h on ice, then washed with PBS, and incubated with an Alexa568-conjugated anti-mouse secondary antibody (1:800) in PBS plus 3% BSA for 45 min on ice. The cells were then incubated with FITC-P1 as reported, fixed for 10 min in 4% (v/v) paraformaldehyde, and examined by confocal microscopy, as above.

EHEB cells [2] = assay: annexin-V staining of EHEB cells (FACS); assay type: cell-based, human; conditions: biotinylated P1 1 μg/ml alone or streptavidin-bound; ML-191 0.5 μM
From the text: In parallel, for analysis of apoptosis markers, 200,000 cells/sample were harvested, washed in PBS, stained with fluorescent annexin V using human annexin V-FITC kits (Bender MedSystems GmbH, Vienna, Austria), according to the manufacturer instructions, and analyzed by FACS.

EHEB cells [3] = assay: growth of EHEB cells (cell counting); assay type: cell-based, human; conditions: ML-191 0.5 μM, 96 h
Description: (§1) HEK293 cells were bought in 2012, from the American Type Culture Collection (ATCC catalogue number: CRL-11268), and were grown in monolayers in DMEM supplemented with 10% FBS, 2 mM L-glutamine, 100 U/ml penicillin, and 100 μg/ml streptomycin. HeLa cells were received from Dr. D. Corda, Institute of Protein Biochemistry, CNR, Naples, which were bought in 2006 from the European Collection of Cell Culture (ECACC catalog number: 93021013). Wild-type HeLa cells were maintained in MEM with 10% FBS, 2 mM L-glutamine, 100 U/ml penicillin, 100 μg/ml streptomycin, and nonessential amino acids (i.e., 100 μM glycine, L-alanine, L-asparagine, L-aspartic acid, L-glutamic acid, L-proline, L-serine). The HeLa clones were selected in the presence of 0.3 μg/ml puromycin. CHO cells were received from Dr. D. Corda, and were grown in DMEM supplemented with 10% FBS, 2 mM L-glutamine, 100 U/ml penicillin, 100 μg/ml streptomycin, and nonessential amino acids. EHEB cells are an Epstein-Barr-virus-immortalized cell line that was established from a chronic lymphocytic leukemia patient, and these were purchased from DSMZ (Deutsche Sammlung von Mikroorganismen und Zellkulturen GmbH, Braunschweig, Germany). DeFew cells are a non-Hodgkin lymphoma cell line, and these were obtained from Prof. G. Scala, ‘Magna Graecia’ University of Catanzaro [46–48]. Both of these human B-lymphoblastoid cell lines were maintained in RPMI 1640 with 10% heat-inactivated (30 min at 55°C) FBS, 2 mM L-glutamine, 100 U/ml penicillin, and 100 μg/ml streptomycin, and were routinely tested for BCR expression and anti-IgG stimulation, according to previous studies. All of the cells were grown in a humidified atmosphere of 5% CO2 and at 37°C return.
(§2) The EHEB cell growth rate was evaluated by cell counting. EHEB and DeFew cells were plated into 24-well plates in 400 μl growth medium at a density of 25,000 cells/ml. The cells were grown in the absence and presence of different agents, which were added immediately after cell plating and replenished every 24 h. Every 24 h, the cells were put through independent and blinded counts in triplicate, using a Neubauer cell-counting chamber. After 48 h, the cells were diluted 1:2 with fresh medium and 400 μl were transferred in a new 24-well for the following peptide additions. At 96 h, the cells were counted with 0.2% trypan blue, to determine cell viability.

DeFew cells = assay: growth of DeFew cells (cell counting); assay type: cell-based, human; conditions: ML-191 0.5 μM, 96 h
Description: as §1, §2

T1 sequence (Q9Y2T6 whole entry): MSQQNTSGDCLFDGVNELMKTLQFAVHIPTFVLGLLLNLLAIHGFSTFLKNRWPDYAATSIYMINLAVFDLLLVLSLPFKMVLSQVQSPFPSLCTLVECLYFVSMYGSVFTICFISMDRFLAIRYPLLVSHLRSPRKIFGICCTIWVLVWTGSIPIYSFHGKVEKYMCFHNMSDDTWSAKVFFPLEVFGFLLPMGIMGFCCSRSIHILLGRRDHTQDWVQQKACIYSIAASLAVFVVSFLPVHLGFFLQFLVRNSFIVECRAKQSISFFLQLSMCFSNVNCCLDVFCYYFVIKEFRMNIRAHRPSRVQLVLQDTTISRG

| Structure (SMILES) | binding to glycosylated versus deglycosylated GPR55 [1] | decrease in binding, siGPR55 relative to siNT (GPR55 (HeLa cells); 50% reduction in GPR55 expression, four independent experiments) [%] | less binding to shGPR55 HeLa clones relative to shCtrl (GPR55 (HeLa cells); 90% decrease in GPR55 mRNA, three independent experiments) [%] | increase in binding on GPR55 re-expression in shGPR55 clones versus empty vector (GPR55 (HeLa cells); three independent experiments) [%] | co-localization with GPR55 (HA-GPR55) | annexin V cell decoration (EHEB cells [2]) | Cell counts/ml (EHEB cells [3]; replenished every 24 h, DMSO 801 ±18, means ±SEM, n = 4 in duplicate, p <0.01) | Growth inhibition (EHEB cells [3]; relative to DMSO-treated cells) | Cell counts/ml (DeFew cells; replenished every 24 h, DMSO 1053 ±41, means ±SEM, n = 4 in duplicate, p <0.01) | Growth inhibition (DeFew cells; relative to DMSO-treated cells) |
| --- | --- | --- | --- | --- | --- | --- | --- | --- | --- | --- |
| CC(C)C[C@@H]1NC(=O)[C@H]([C@@H](C)O)NC(=O)[C@@H]2CCCN2C(=O)[C@H](CO)NC(=O)[C@H](CC(N)=O)NC(=O)[C@H](CCCCN)NC(=O)[C@H](CCCCN)NC(=O)[C@@H](NC(=O)CCCCCNC(=S)Nc2ccc3c(c2)C(=O)OC32c3ccc(O)cc3Oc3cc(O)ccc32)CSSC[C@@H](C(=O)O)NC1=O [FITC-P1] ({FITC-Ahx}-CKKNSPTLC-OH; disulfide 1-9; N-terminus and C-terminus assumed) | bound equally to both glycosylated and deglycosylated GPR55-immunoprecipitates | 26 | 34 | 25 | distributed at the membrane level, with evident spots of co-localization |  |  |  |  |  |
| Cc1ccc(C2(C(=O)N3CCC(n4nc(-c5ccccc5)oc4=O)CC3)CC2)cc1 [ML-191] |  |  |  |  |  | did not increase annexin V cell decoration, similar to ML-191 | 578 ±49 ×1,000 | (28%) | 650 ±51 ×1,000 | (38%) |

Reference: paper PMC5354900, “Peptide-guided targeting of GPR55 for anti-cancer therapy” (Oncotarget, 2016)
